Laboratory results from BindingDB's records for doi:10.1016/j.bmcl.2017.05.059 (University of Mysore, 2017).

Test: Inhibition of Vipera russelii venom sPLA2-induced hemolytic activity in human erythrocytes assessed as reduction hemoglobin release in presence of egg yolk preincubated for 5 mins followed by erythrocyte addition by spectrophotometric analysis

Work on COc1ccc(C2CC(c3ccco3)=Nc3ccccc3S2)cc1 (stereo unspecified) yielded an IC50 of 21.3 µM.
